According to patent US20240108577A1, “CONTROLLED RELEASE OF […] A SOURCE MATERIAL” (Syqe Medical Ltd., priority 2022, published 2024):

Columns and labels:
[1] = Long-term stability of ground cannabis packaged in Syqe cartridges at 25° C.±2° C. (RH 60%±5%), LOD and U-HPLC; assay type: physicochemical; settings: for change in phytocannabinoid amount during storage: RH 60%, up to 24 months, one-way ANOVA
Description: (§1) In some embodiments, once cartridges are produced, they are stored, distributed and used at RT. In order to assess the shelf life of such cartridges, a long-term stability study was performed, during which cartridges were stored at 25° C.±2° C. (RH 60%±5%) in a calibrated and certified stability chamber (Memmert Constant climate chamber HPP260). 9, 6, 9, 8, 7, 4 and 4 separate growing batches were tested at baseline and after 3, 6, 9, 12, 18 and 24 months, respectively. At each time point samples of the ground inflorescence within the cartridges were analyzed for LOD and for the amount (mg) of each of the major phytocannabinoids (CBDA, CBD, CBGA, CBN, THCA and THC). Of the same batches, THC aerosolized by the Syqe inhaler was analyzed at baseline and at 6, 9, 18 and 24 months.
(§2) Analysis of cannabis inflorescences for the main phytocannabinoids (CBDA, CBD, CBGA, CBN, THCA and THC) was performed as follows: 100 mg of ground Cannabis inflorescences were weighed in duplicate from one container and extracted with 25 mL methanol then sonicated for 40 min and centrifuged at 3000 rpm for 5 min. All samples were filtered through a 0.22 μm PP filter vail prior to analysis. The dilution and quantitation were preformed corresponding to calibration curves. The main six phytocannabinoids were analyzed by ultra-high-performance liquid chromatography (UHPLC: […]) system with a refrigerated auto-sampler, thermostatic column oven and ultraviolet detector, Waters ACQUITY UPLC H-Class. Chromatographic separation was achieved using UPLC column Waters Acquity C18, 1.7 μm particles, 2.1×150 mm maintained at 30° C. The phytocannabinoids were separated using a gradient elution with mobile phases of 0.1% (v/v) formic acid in double-distilled water (phase A) and acetonitrile (phase B), respectively. A constant flow rate of 0.4 mL/min was employed throughout. The gradient profile varied from 70% to 100% B in 10.5 min, held for 0.5 min in these conditions and then returned to the initial conditions.
(§3) For THC and CBD, the concentrations of the acid and its neutral counterpart were summed and reported as the total content. For example, the concentration of total THC […] was calculated as: Total THC=THCA*0.877+THC, with 0.877 being the molar ratio between the two compounds that corrects for a change in the mass of THCA as a result of the loss of CO2 (decarboxylation). This is shown in FIG. 7A: “U-HPLC analysis of the Bedrocan cultivar”.
(§4) R software (V.1.1.463) with tidyverse (17) package was used to analyze changes in outcome measures by one way ANOVA test, using Fisher's exact test analysis. All analyses were followed by a Tukey post-hoc test for multiple comparison. Data are presented as Mean±95% confidence interval (CI). Differences were considered significant at the p<0.05 level.

[2] = Stability of Syqe cartridges stored at 30° C.±2° C. (65% RH±5% RH), LOD and U-HPLC; assay type: physicochemical; settings: for change in phytocannabinoid amount during storage: 65% RH, up to 6 months, one-way ANOVA; for amounts detected at all time points: BL to 6 months
Description: Additionally, to assess the effects of a warmer temperature on MC, Syqe cartridges were stored post-production at an elevated temperature and humidity of 30° C.±2° C. (65% RH±5% RH). Three different growing batches were analyzed at baseline and at 1, 2, 4 and 6 months of storage.
as §2, §3, §4

[3] = Pre-packaging refrigeration stability of ground MC powder (5° C.±2° C., up to 12% RH), LOD and U-HPLC of phytocannabinoids; assay type: physicochemical; settings: for change in phytocannabinoid concentration during storage: up to 3 months, one-way ANOVA
Description: In the described experiment, Bedrocan strain MC powder was stored at 5° C.±2° C. with up to 12% relative humidity (RH) in a polypropylene container, sealed in an aluminum foil pouch (Oliver-Tolas Healthcare Packaging B.V.; Venray, Netherlands). In order to assess its stability during the handling and hold time, samples were taken from three separate growing batches and assayed at baseline and at 1, 2 and 3 months post grinding. Each sample was assayed for loss on drying (LOD), and of the concentrations of the major phytocannabinoids (CBDA, CBD, CBGA, CBN, THCA and THC).
as §2, §3, §4

[4] = after four years, room temperature (22 C), light or darkness (conditions A and B); cited from earlier work
[5] = THC dose aerosolized by the Syqe inhaler from cartridges stored at 25° C. up to 24 months; assay type: physicochemical; settings: for aerosolized THC dose: inhaler set to 500 μg THC, mean±95% CI
Description: as §1
In some embodiments, the Syqe inhaler is preprogrammed with several distinct heating protocols. In some embodiments, each heating protocol is tailored to heat a VC and deliver an aerosol containing 250, 500, 750 or 1,000 μg or intermediate, larger or smaller amounts of THC to the user. In some embodiments, THC serves as an indicator for dose selection and is optionally delivered with an entourage of phytocannabinoids, terpenes and other molecules of the whole inflorescence that vaporize into the aerosol with it. […] Other dosage amounts are also to be contemplated, any may also serve as optimal dosing, depending on the need. For example, dosage amounts of between 50-5000 μg Δ^9-THC, 200-1000 μg Δ^9-THC, 50-500 μg Δ^9-THC, 1000-5000 μg Δ^9-THC, or intermediate, higher or lower ranges.
In the framework of the two-year stability study, samples were also taken for aerosolization using the Syqe Inhaler. The Syqe Inhaler was set to aerosolize 500 μg THC doses, in accordance with some embodiments. Data is provided only for time points in which three or more batches were tested (namely, BL and 6, 9, 18 and 24 months). […] BL, 6-, 9-, 18-, and 24-months' values were 484.76±31.28n, 486.30±50.56n, 563±22.06 μg, 597.94±16.75 μg and 554.67±36.00 μg, respectively. All aerosolized THC doses were well within the 500 μg±25% range (i.e., 375-625 μg) that apply to pharmaceutical grade inhalers (16).

[6] = Heating of ground cannabis samples to target temperatures 60-150° C.; vaporized THC measured in aerosol, residual terpenes by GC/MS; assay type: physicochemical; settings: 135 mg ground cannabis, THC measured in the aerosol, FIG. 6A
Description: The vaporization plots in FIGS. 6A-B show results of an experiment performed by the inventors in which samples of 135 mg of ground cannabis were heated to several target temperatures, including 60° C., 70° C., 80° C., 90° C., 100° C., 110° C., 120° C., 130° C., 140° C. and 150° C. At each of the target temperatures, vaporized THC was measured in the aerosol. At each of the target temperatures, the residual mass of ground cannabis was analyzed using Gas Chromatography-Mass Spectrometry (GC/MS) to determine existence of terpenes, such as: Linalool, Isopulegol, Geraniol, Caryophyllene, […] Humulene<alpha-> and Nerolidol. The total terpenes residue (as remaining in the ground cannabis) is indicated by the dashed line in FIG. 6A. Based on the residual mass of terpenes, the released (vaporized) amount terpenes was calculated, by subtracting the measured residual mass from a respective reference mass.
As can be observed from FIG. 6A, THC (indicated by the continuous line) release started at a target temperature of 130 degrees C., and increased with the rising of the target temperature (up to 150 degrees C.).

Row | Structure (SMILES) | change in phytocannabinoid amount during storage ([1]; 25° C.) | change in phytocannabinoid amount during storage [2] | change in phytocannabinoid concentration during storage [3] | amounts detected at all time points [2] | also measured
1 | CCCCCc1cc2c(c(O)c1C(=O)O)[C@@H]1C=C(C)CC[C@H]1C(C)(C)O2 (relative stereo) [THCA, (−)-Δ^9-trans-tetrahydrocannabinolic acid] | decreased significantly | decreased significantly | no significant change |  | 
2 | C=C(C)[C@@H]1CCC(C)=C[C@H]1c1c(O)cc(CCCCC)cc1O [CBD, Cannabidiol, reference compound] |  |  |  | mostly undetected | concentration detected at all time points ([1]; 25° C., BL to 24 months): mostly non-detected; concentration detected at all time points ([3]; BL to 3 months): mostly undetected
3 | C=C(C)[C@@H]1CCC(C)=C[C@H]1c1c(O)cc(CCCCC)c(C(=O)O)c1O [CBDA, Cannabidiolic acid] | no significant change |  | no significant change | mostly undetected | pre-storage amount ([1]; before storage): ≤ 0.006 mg/sample
4 | CCCCCc1cc(O)c(C/C=C(\C)CCC=C(C)C)c(O)c1C(=O)O [CBGA, Cannabigerolic acid] | decreased significantly | decreased significantly | no significant change |  | 
5 | CCCCCc1cc(O)c2c(c1)OC(C)(C)c1ccc(C)cc1-2 [CBN, Cannabinol] | increased significantly | increased significantly | no significant change |  | 
6 | CCCCCc1cc(O)c2c(c1)OC(C)(C)[C@@H]1CCC(C)=C[C@@H]21 [THC, (−)-Δ^9-trans-tetrahydrocannabinol] | increased | increased significantly | no significant change |  | change in phytocannabinoid amount during storage ([1]; 25° C., listed as Δ^9-THC): increased significantly; THC degraded [4]: ~100%; aerosolized THC dose ([5]; 6 months at 25° C.): 486.30±50.56 n; aerosolized THC dose ([5]; 9 months at 25° C.): 563 ± 22.06 µg; aerosolized THC dose ([5]; 18 months at 25° C.): 597.94 ± 16.75 µg; aerosolized THC dose ([5]; 24 months at 25° C.): 554.67 ± 36.00 µg; range within which all aerosolized THC doses remained ([5]; BL to 24 months at 25° C., 500 μg±25%): 375 to 625 µg; aerosolized THC dose ([5]; BL): 484.76±31.28 n; target temperature at which THC release started [6]: 130 degrees C.
